# From patent US12157741B2, “Macrocyclic inhibitors of DYRK1A” (DANA-FARBER CANCER INSTITUTE, INC., priority 2018, dated 2024)
# Read-outs that look alike come from different tables or passages of the source.
# Assays:
# Format in all cases: binding
# various enzymes [1] = molecular target: various enzymes (Homo sapiens, UniProt P00533, G719C)
# Description: (§1) Ambit profiling was conducted in accordance with the manufacturer's instructions.
# various enzymes [2] = molecular target: various enzymes (Homo sapiens, UniProt P42685); details: compound 1 uM
# Description: as §1
# various enzymes [3] = molecular target: various enzymes (Homo sapiens, UniProt Q99558); details: compound 1 uM
# Sequence of various enzymes (Homo sapiens, UniProt Q99558) (Q99558 whole entry): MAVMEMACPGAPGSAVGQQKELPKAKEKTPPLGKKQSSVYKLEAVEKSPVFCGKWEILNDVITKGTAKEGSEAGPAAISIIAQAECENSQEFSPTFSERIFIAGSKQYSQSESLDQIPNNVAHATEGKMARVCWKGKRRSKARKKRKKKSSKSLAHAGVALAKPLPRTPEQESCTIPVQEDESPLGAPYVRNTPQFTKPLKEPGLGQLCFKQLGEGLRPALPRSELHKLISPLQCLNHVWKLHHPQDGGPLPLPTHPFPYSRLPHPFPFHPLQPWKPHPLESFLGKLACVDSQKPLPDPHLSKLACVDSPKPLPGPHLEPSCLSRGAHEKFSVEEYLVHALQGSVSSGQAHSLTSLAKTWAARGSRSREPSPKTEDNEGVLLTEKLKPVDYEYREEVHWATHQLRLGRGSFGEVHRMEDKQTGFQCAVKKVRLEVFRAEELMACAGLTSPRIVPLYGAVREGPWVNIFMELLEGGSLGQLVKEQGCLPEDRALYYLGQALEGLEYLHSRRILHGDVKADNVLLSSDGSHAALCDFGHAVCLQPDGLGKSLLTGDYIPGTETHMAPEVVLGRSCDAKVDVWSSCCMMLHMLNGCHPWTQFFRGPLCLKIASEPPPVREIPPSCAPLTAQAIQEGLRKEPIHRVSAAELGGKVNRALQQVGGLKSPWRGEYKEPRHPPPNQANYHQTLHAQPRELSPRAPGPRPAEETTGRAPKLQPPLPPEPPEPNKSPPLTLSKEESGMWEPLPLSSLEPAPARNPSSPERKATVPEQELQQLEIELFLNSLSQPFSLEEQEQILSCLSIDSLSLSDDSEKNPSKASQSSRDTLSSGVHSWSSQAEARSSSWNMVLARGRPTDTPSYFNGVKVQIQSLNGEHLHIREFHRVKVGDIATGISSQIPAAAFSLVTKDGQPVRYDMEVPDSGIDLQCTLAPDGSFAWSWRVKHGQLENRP
# Description: as §1
# various enzymes [4] = molecular target: various enzymes (Homo sapiens, UniProt P00519); details: compound 1 uM
# Sequence of various enzymes (Homo sapiens, UniProt P00519) (P00519 whole entry): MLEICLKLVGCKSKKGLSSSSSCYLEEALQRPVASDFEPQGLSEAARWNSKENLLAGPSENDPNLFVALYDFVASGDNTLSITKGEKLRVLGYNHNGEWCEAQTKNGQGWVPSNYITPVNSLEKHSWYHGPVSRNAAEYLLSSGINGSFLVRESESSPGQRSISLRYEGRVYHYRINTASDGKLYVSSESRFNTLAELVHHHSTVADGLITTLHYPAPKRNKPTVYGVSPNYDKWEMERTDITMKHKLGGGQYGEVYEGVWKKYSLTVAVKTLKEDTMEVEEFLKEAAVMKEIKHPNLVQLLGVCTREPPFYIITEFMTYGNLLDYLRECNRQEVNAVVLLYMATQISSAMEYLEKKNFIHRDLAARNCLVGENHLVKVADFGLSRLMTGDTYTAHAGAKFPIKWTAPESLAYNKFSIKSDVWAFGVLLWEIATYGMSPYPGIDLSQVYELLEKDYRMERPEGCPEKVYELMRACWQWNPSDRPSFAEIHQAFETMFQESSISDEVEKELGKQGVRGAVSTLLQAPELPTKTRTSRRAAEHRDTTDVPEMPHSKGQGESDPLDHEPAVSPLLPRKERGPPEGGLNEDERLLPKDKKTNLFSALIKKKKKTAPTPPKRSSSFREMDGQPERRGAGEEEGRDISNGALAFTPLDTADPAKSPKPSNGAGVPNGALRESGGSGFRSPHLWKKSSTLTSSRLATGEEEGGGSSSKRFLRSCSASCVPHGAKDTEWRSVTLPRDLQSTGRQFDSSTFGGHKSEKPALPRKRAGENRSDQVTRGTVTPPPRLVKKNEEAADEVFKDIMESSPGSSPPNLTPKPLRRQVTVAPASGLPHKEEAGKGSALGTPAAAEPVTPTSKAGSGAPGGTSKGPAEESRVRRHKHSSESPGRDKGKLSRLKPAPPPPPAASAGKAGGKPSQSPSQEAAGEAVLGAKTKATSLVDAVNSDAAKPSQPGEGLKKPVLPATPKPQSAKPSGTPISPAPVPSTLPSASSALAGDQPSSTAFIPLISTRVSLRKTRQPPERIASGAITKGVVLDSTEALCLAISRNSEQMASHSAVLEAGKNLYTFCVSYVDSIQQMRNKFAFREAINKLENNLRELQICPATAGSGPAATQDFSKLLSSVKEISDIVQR
# Description: as §1
# various enzymes [5] = molecular target: various enzymes (Homo sapiens, UniProt O00329); details: compound 1 uM
# Description: as §1
# various enzymes [6] = molecular target: various enzymes (Homo sapiens, UniProt Q00532); details: compound 1 uM
# Description: as §1
# various enzymes [7] = molecular target: various enzymes (Homo sapiens, UniProt Q8N4C8); details: compound 1 uM
# Description: as §1
# various enzymes [8] = molecular target: various enzymes (Homo sapiens, UniProt Q15349); details: compound 1 uM
# Sequence of various enzymes (Homo sapiens, UniProt Q15349) (Q15349 whole entry): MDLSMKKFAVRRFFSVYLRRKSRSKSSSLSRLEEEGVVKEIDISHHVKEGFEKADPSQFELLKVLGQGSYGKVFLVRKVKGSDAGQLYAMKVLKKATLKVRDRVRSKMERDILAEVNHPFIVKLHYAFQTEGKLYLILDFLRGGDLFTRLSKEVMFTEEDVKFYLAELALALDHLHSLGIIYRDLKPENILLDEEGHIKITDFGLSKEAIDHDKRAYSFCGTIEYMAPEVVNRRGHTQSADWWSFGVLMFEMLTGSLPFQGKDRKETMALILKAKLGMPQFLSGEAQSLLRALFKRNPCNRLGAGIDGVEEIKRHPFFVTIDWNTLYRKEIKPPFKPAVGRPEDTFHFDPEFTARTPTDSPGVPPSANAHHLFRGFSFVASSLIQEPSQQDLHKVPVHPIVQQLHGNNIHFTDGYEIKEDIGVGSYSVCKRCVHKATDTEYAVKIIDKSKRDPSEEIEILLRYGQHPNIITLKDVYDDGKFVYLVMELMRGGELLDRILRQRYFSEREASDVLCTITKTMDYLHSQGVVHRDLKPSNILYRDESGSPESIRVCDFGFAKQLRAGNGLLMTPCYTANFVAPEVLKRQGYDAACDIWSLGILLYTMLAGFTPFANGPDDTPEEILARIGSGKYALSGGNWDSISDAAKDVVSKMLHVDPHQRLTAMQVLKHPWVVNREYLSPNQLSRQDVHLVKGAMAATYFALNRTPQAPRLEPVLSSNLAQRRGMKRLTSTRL
# Description: as §1
# various enzymes [9] = molecular target: various enzymes (Homo sapiens, UniProt Q8TDC3); details: compound 1 uM
# Sequence of various enzymes (Homo sapiens, UniProt Q8TDC3) (Q8TDC3 whole entry): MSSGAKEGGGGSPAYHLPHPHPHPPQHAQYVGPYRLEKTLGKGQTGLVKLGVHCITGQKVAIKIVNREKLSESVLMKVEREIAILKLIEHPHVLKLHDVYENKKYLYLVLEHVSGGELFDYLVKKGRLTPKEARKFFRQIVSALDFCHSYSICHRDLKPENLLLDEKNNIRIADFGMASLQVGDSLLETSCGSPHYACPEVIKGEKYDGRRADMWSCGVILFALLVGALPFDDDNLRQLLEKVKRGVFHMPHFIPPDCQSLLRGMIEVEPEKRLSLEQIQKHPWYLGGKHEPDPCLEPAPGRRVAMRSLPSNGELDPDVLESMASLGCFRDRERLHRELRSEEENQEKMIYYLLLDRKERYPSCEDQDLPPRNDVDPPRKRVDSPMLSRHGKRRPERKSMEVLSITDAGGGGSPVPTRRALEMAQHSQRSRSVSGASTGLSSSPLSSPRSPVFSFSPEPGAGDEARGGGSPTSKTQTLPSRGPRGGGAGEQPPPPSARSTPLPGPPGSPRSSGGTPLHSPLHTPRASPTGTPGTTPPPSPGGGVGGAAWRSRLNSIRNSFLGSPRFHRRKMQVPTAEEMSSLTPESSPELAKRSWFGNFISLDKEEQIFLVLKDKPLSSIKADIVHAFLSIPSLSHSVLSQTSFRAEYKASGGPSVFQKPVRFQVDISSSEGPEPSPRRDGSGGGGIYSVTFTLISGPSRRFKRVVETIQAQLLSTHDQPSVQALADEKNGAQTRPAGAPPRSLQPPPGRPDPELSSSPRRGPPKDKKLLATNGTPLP
# Description: as §1
# various enzymes [10] = molecular target: various enzymes (Homo sapiens, UniProt O43683); details: compound 1 uM
# Description: as §1
# various enzymes [11] = molecular target: various enzymes (Homo sapiens, UniProt Q13237); details: compound 1 uM
# Description: as §1
# various enzymes [12] = molecular target: various enzymes (Homo sapiens, UniProt P07948); details: compound 1 uM
# Description: as §1
# various enzymes [13] = molecular target: various enzymes (Homo sapiens, UniProt O00750); details: compound 1 uM
# Description: as §1
# various enzymes [14] = molecular target: various enzymes (Homo sapiens, UniProt O15264); details: compound 1 uM
# Description: as §1
# various enzymes [15] = molecular target: various enzymes (Homo sapiens, UniProt Q9BYP7); details: compound 1 uM
# Description: as §1
# various enzymes [16] = molecular target: various enzymes (Homo sapiens, UniProt Q9Y3S1); details: compound 1 uM
# Description: as §1
# various enzymes [17] = molecular target: various enzymes (Homo sapiens, UniProt Q09013); details: compound 1 uM
# Description: as §1
# various enzymes [18] = molecular target: various enzymes (Homo sapiens, UniProt O14936); details: compound 1 uM
# Description: as §1
# various enzymes [19] = molecular target: various enzymes (Homo sapiens, UniProt P06213); details: compound 1 uM
# Description: as §1
# various enzymes [20] = molecular target: various enzymes (Homo sapiens, UniProt P42336, Q546K)
# Description: as §1
# various enzymes [21] = molecular target: various enzymes (Homo sapiens, UniProt P53667); details: compound 1 uM
# Description: as §1
# various enzymes [22] = molecular target: various enzymes (Homo sapiens, UniProt P35916); details: compound 1 uM
# Description: as §1
# various enzymes [23] = molecular target: various enzymes (Plasmodium falciparum, UniProt P62344)
# Description: as §1
# various enzymes [24] = molecular target: various enzymes (Homo sapiens, UniProt Q9H3Y6); details: compound 1 uM
# Description: as §1
# various enzymes [25] = molecular target: various enzymes (Homo sapiens, UniProt Q6P2M8); details: compound 1 uM
# Description: as §1
# various enzymes [26] = molecular target: various enzymes (Homo sapiens, UniProt P53671); details: compound 1 uM
# Description: as §1
# various enzymes [27] = molecular target: various enzymes (Homo sapiens, UniProt P32298); details: compound 1 uM
# Sequence of various enzymes (Homo sapiens, UniProt P32298) (P32298 whole entry): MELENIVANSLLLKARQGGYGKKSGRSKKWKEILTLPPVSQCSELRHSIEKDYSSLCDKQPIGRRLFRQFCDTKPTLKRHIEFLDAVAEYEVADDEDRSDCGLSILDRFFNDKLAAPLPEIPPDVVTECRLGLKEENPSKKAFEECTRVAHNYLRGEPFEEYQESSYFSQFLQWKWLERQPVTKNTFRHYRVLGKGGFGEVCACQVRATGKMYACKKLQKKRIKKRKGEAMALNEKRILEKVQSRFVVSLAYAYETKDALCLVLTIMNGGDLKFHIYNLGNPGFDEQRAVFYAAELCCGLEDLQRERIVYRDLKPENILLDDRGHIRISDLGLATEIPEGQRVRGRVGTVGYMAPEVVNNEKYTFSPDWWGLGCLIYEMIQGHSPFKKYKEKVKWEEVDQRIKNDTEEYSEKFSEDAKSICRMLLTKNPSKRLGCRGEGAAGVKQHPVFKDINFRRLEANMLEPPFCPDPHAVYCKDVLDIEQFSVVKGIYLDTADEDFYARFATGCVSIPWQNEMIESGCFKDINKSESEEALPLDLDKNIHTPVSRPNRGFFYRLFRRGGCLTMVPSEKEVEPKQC
# Description: as §1
# various enzymes [28] = molecular target: various enzymes (Homo sapiens, UniProt O14578); details: compound 1 uM
# Description: as §1
# various enzymes [29] = molecular target: various enzymes (Homo sapiens, UniProt Q12851); details: compound 1 uM
# Description: as §1
# various enzymes [30] = molecular target: various enzymes (Homo sapiens, UniProt Q12866); details: compound 1 uM
# Description: as §1
# various enzymes [31] = molecular target: various enzymes (Homo sapiens, UniProt P21860); details: compound 1 uM
# Description: as §1
# various enzymes [32] = molecular target: various enzymes (Homo sapiens, UniProt P31749); details: compound 1 uM
# Description: as §1
# various enzymes [33] = molecular target: various enzymes (Homo sapiens, UniProt P48736); details: compound 1 uM
# Description: as §1
# various enzymes [34] = molecular target: various enzymes (Homo sapiens, UniProt Q96NX5); details: compound 1 uM
# Description: as §1
# various enzymes [35] = molecular target: various enzymes (Homo sapiens, UniProt P0C264); details: compound 1 uM
# Sequence of various enzymes (Homo sapiens, UniProt P0C264) (P0C264 whole entry): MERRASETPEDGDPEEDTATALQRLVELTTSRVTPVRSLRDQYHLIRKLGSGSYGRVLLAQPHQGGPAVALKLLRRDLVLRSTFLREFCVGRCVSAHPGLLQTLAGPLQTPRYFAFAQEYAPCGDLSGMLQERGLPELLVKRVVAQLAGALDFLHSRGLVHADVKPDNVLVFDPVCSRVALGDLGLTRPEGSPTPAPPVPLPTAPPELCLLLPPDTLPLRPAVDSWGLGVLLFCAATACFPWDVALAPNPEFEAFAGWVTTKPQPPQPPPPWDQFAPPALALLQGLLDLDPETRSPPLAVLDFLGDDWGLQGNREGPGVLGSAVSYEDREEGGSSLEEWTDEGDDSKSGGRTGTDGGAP
# Description: as §1
# various enzymes [36] = molecular target: various enzymes (Homo sapiens, UniProt Q9Y616); details: compound 1 uM
# Description: as §1
# various enzymes [37] = molecular target: various enzymes (Homo sapiens, UniProt P42336); details: compound 1 uM
# Description: as §1
# various enzymes [38] = molecular target: various enzymes (Homo sapiens, UniProt P36897); details: compound 1 uM
# Description: as §1
# various enzymes [39] = molecular target: various enzymes (Homo sapiens, UniProt O15530); details: compound 1 uM
# Description: as §1
# various enzymes [40] = molecular target: various enzymes (Homo sapiens, UniProt P10721, T670I/V559D)
# Description: as §1
# various enzymes [41] = molecular target: various enzymes (Homo sapiens, UniProt P19784); details: compound 1 uM
# Sequence of various enzymes (Homo sapiens, UniProt P19784) (P19784 whole entry): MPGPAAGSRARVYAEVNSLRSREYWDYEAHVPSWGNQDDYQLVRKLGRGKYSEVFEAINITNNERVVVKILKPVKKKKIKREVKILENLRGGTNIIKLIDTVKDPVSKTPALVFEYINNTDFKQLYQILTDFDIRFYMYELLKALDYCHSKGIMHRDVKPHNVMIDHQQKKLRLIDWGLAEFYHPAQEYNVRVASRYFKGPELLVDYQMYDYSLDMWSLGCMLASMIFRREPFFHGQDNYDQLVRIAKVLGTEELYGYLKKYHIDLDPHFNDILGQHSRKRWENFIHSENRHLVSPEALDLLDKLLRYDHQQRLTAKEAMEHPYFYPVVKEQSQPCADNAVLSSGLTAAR
# Description: as §1
# various enzymes [42] = molecular target: various enzymes (Homo sapiens, UniProt P22455); details: compound 1 uM
# Description: as §1
# various enzymes [43] = molecular target: various enzymes (Homo sapiens, UniProt Q92772); details: compound 1 uM
# Description: as §1
# various enzymes [44] = molecular target: various enzymes (Homo sapiens, UniProt P52564); details: compound 1 uM
# Description: as §1
smiles,measurement,setting,value
"CC(C)N1Cc2nn(C)cc2-c2cnc3[nH]cc(c3c2)-c2cn(nc2C(F)(F)F)CCCC1=O [Compound 45, (Z)-5-isopropyl-31-methyl-13-(trifluoromethyl)-11H,21H,31H-5-aza-2(3,5)-pyrrolo[2,3-b]pyridina-1(4,1),3(4,3)-dipyrazolacyclononaphan-6-one]",Ambit profiling: EGFR(G719C),various enzymes [1]; compound 1 uM,59
same,Ambit profiling: FRK,various enzymes [2],11
same,Ambit profiling: NIK,various enzymes [3],94
same,Ambit profiling: ABL1-nonphosphorylated,various enzymes [4],20
same,Ambit profiling: ABL1-phosphorylated,various enzymes [4],9
same,Ambit profiling: PIK3CD,various enzymes [5],92
same,Ambit profiling: CDKL1,various enzymes [6],39
same,Ambit profiling: MINK,various enzymes [7],1.8
same,Ambit profiling: RSK3(Kin.Dom.1-N-terminal),various enzymes [8],4.7
same,Ambit profiling: RSK3(Kin.Dom.2-C-terminal),various enzymes [8],96
same,Ambit profiling: BRSK1,various enzymes [9],100
same,Ambit profiling: BUB1,various enzymes [10],81
same,Ambit profiling: PRKG2,various enzymes [11],100
same,Ambit profiling: LYN,various enzymes [12],22
same,Ambit profiling: PIK3C2B,various enzymes [13],92
same,Ambit profiling: p38-delta,various enzymes [14],100
same,Ambit profiling: WNK3,various enzymes [15],100
same,Ambit profiling: WNK2,various enzymes [16],64
same,Ambit profiling: DMPK,various enzymes [17],20
same,Ambit profiling: CASK,various enzymes [18],7.4
same,Ambit profiling: INSR,various enzymes [19],43
same,Ambit profiling: PIK3CA(Q546K),various enzymes [20]; compound 1 uM,100
same,Ambit profiling: LIMK1,various enzymes [21],93
same,Ambit profiling: FLT4,various enzymes [22],0.1
same,Ambit profiling: PFCDPK1(P. falciparum),various enzymes [23]; compound 1 uM,2.8
same,Ambit profiling: SRMS,various enzymes [24],69
same,Ambit profiling: CAMK1B,various enzymes [25],25
same,Ambit profiling: LIMK2,various enzymes [26],100
same,Ambit profiling: GRK4,various enzymes [27],14
same,Ambit profiling: CIT,various enzymes [28],17
same,Ambit profiling: MAP4K2,various enzymes [29],3.9
same,Ambit profiling: MERTK,various enzymes [30],0.6
same,Ambit profiling: ERBB3,various enzymes [31],100
same,Ambit profiling: AKT1,various enzymes [32],100
same,Ambit profiling: PIK3CG,various enzymes [33],94
same,Ambit profiling: CAMK1G,various enzymes [34],88
same,Ambit profiling: SgK110,various enzymes [35],98
same,Ambit profiling: IRAK3,various enzymes [36],2.6
same,Ambit profiling: PIK3CA,various enzymes [37],100
same,Ambit profiling: TGFBR1,various enzymes [38],87
same,Ambit profiling: PDPK1,various enzymes [39],98
same,"Ambit profiling: KIT(V559D, T670I)",various enzymes [40]; compound 1 uM,8.2
same,Ambit profiling: CSNK2A2,various enzymes [41],1.8
same,Ambit profiling: FGFR4,various enzymes [42],85
same,Ambit profiling: CDKL2,various enzymes [43],14
same,Ambit profiling: MEK6,various enzymes [44],15
"COc1c2c(nn1C)CN(C(C)C)C(=O)CCCn1cc(c(C(F)(F)F)n1)-c1c[nH]c3ncc-2cc13 [Compound 50, (Z)-5-isopropyl-35-methoxy-31-methyl-13-(trifluoromethyl)-11H,21H,31H-5-aza-2(3,5)-pyrrolo[2,3-b]pyridina-1(4,1),3(4,3)-dipyrazolacyclononaphan-6-one]",Ambit profiling: EGFR(G719C),various enzymes [1],51
same,Ambit profiling: FRK,various enzymes [2],10
same,Ambit profiling: NIK,various enzymes [3],86
same,Ambit profiling: ABL1-nonphosphorylated,various enzymes [4],11
same,Ambit profiling: ABL1-phosphorylated,various enzymes [4],3.8
same,Ambit profiling: PIK3CD,various enzymes [5],94
same,Ambit profiling: CDKL1,various enzymes [6],51
same,Ambit profiling: MINK,various enzymes [7],0
same,Ambit profiling: RSK3(Kin.Dom.1-N-terminal),various enzymes [8],4
same,Ambit profiling: RSK3(Kin.Dom.2-C-terminal),various enzymes [8],80
same,Ambit profiling: BRSK1,various enzymes [9],89
same,Ambit profiling: BUB1,various enzymes [10],35
same,Ambit profiling: PRKG2,various enzymes [11],87
same,Ambit profiling: LYN,various enzymes [12],15
same,Ambit profiling: PIK3C2B,various enzymes [13],100
same,Ambit profiling: p38-delta,various enzymes [14],99
same,Ambit profiling: WNK3,various enzymes [15],100
same,Ambit profiling: WNK2,various enzymes [16],46
same,Ambit profiling: DMPK,various enzymes [17],100
same,Ambit profiling: CASK,various enzymes [18],36
same,Ambit profiling: INSR,various enzymes [19],22
same,Ambit profiling: PIK3CA(Q546K),various enzymes [20],86
same,Ambit profiling: LIMK1,various enzymes [21],91
same,Ambit profiling: FLT4,various enzymes [22],0.1
same,Ambit profiling: PFCDPK1(P. falciparum),various enzymes [23],24
same,Ambit profiling: SRMS,various enzymes [24],81
same,Ambit profiling: CAMK1B,various enzymes [25],16
same,Ambit profiling: LIMK2,various enzymes [26],64
same,Ambit profiling: GRK4,various enzymes [27],38
same,Ambit profiling: CIT,various enzymes [28],31
same,Ambit profiling: MAP4K2,various enzymes [29],44
same,Ambit profiling: MERTK,various enzymes [30],3.5
same,Ambit profiling: ERBB3,various enzymes [31],100
same,Ambit profiling: AKT1,various enzymes [32],100
same,Ambit profiling: PIK3CG,various enzymes [33],54
same,Ambit profiling: CAMK1G,various enzymes [34],54
same,Ambit profiling: SgK110,various enzymes [35],99
same,Ambit profiling: IRAK3,various enzymes [36],15
same,Ambit profiling: PIK3CA,various enzymes [37],83
same,Ambit profiling: TGFBR1,various enzymes [38],36
same,Ambit profiling: PDPK1,various enzymes [39],100
same,"Ambit profiling: KIT(V559D, T670I)",various enzymes [40],10
same,Ambit profiling: CSNK2A2,various enzymes [41],8.7
same,Ambit profiling: FGFR4,various enzymes [42],79
same,Ambit profiling: CDKL2,various enzymes [43],20
same,Ambit profiling: MEK6,various enzymes [44],45
